Experimental data taken from patent US20160354300A1, “Low Viscosity Hair Care Composition” (The Procter & Gamble Company, priority 2015, published 2016).

Assays:
[1] = Kinematic viscosity at 40 C of surfactant base formulation with added agent (Cannon viscometer); type: physicochemical; details: for Lowest viscosity achieved (cSt): Table 1, base formulation 24% sodium undecyl sulfate, 6% lauramidopropyl betaine, 1.6% perfume, agent at 2%, 4%, 6%, 8%, 40° C.; for Kinematic viscosity at 40 C. [cSt], 2% oil: agent added at 2% to base formulation; for Kinematic viscosity at 40 C. [cSt], 4% oil: agent added at 4% to base formulation; for Kinematic viscosity at 40 C. [cSt], 6% oil: agent added at 6% to base formulation; for Kinematic viscosity at 40 C. [cSt], 8% oil: agent added at 8% to base formulation
Source text: Referring to Tables 1 and 2, the base formulations were made by mixing 1.6% perfume, 24% sodium undecyl sulfate (CAS#1072-24-8) active, 6% lauramidopropyl betaine (CAS#4292-10-8) active and 60.4% deionized water which leaves 8% unfilled for the addition of a viscosity reducing agent (the balance being filled in by distilled water). For all compositions, the surfactant, water and additives including viscosity reducing agents were expected to be in a single phase.
The agents from Tables 1 and 2 were added to the base formulation at a percentage of 2%, 4%, 6%, and 8% into the above surfactant solution. The subsequent formulations were vortexed and put into oven at 60° C. overnight to form homogeneous solution. The viscosities of the formulations were measured with calibrated viscometers (Size 200/350/450) from Cannon Instrument Company (2139 High Tech Road, State College, Pa., USA, 16803).
After the equilibration, the formulations were drawn to reach the starting mark with a rubber suction bulb and the flow time between the starting mark and end mark was recorded for calculation. Each formulation was measured three times to calculate average and standard deviation. Between samples, viscometer was cleaned with water and acetone to rinse off residual.
Viscosity values were calculated based on the equation:
Viscosity (mm^2/s·(cSt))=Time (s)*Constant (mm^2/s^2·(cSt/s))
The time in the above equation is the flow time recorded in the experiment and the constant numbers for each calibrated viscometer were obtained from the manuals. […]
The viscosities of the formulations are measured with calibrated viscometers (Size 200/350/450) from Cannon Instrument Company (2139 High Tech Road, State College, Pa., USA, 16803). Prior to the measurement, the formulations are equilibrated in the viscometer reservoir for 30 min at 40° C. in water bath to ensure a homogeneous temperature is reached in the system. […]

[2] = Visual cloudiness of surfactant formulation with added agent after 20:1 dilution with water; type: physicochemical; set-up: key: Samples that appeared cloudy (turbid) within less than a day were noted as cloudy (“Yes”); Samples that did not appear cloudy (turbid) within less than a day were noted as not cloudy (“No”); details: 0.5 g formula, 10 ml deionized water; for Cloudy at 1:20 dilution at 2%, 4%, and/or 6%: Table 3, visual, within less than a day; for Added at 2%: cloudy at 20:1 dilution: agent at 2%; for Added at 4%: cloudy at 20:1 dilution: agent at 4%; for Added at 6%: cloudy at 20:1 dilution: agent at 6%; for Added at 8%: cloudy at 20:1 dilution: agent at 8%
Protocol: Now referring to Tables 3 and 4, the following surfactant formulations were made by mixing 1.6% perfume, 24% sodium undecyl sulfate (CAS#1072-24-8) active, 6% lauramidopropyl betaine (CAS#4292-10-8) active, and 60.4% deionized water which leaves 8% unfilled for the addition of the listed agents (the balance being filled in by distilled water). The agents were added at a percentage of 2%, 4%, 6%, and 8% into the above surfactant formulation. The resulting formulations were vortexed and put into oven at 60° C. overnight to form homogeneous solution. For all formulations, the surfactant, water and additives, including the added agents, were expected to be in a single phase.
The resulting formulations were weighed out in a scintillation vial combined with 10 ml of water to achieve a representative dilution during use: 0.5 g formula, 10 ml deionized water for 20:1 dilution. After the combination of the ingredients, the vial was vigorously shaken by hand and the samples were visually inspected by looking at the solution against a dark background. Samples that appeared cloudy (turbid) within less than a day were noted as cloudy (“Yes”). […] Samples that appeared cloudy at the 20:1 dilution for any of the 2%, 4% or 6% concentration of oil may be most desirable by requiring a limited amount of the agent to be added, limiting cost and trade-offs associated with higher levels.
The appearance of a cloudy formulation at 1:20 dilution at 2%, 4%, and/or 6% can signal improved deposition of surfactant soluble active agents during consumer use.

SMILES	Lowest viscosity achieved (cSt) [1] [cSt]	Kinematic viscosity at 40 C. [cSt], 2% oil [1] [cSt]	Kinematic viscosity at 40 C. [cSt], 4% oil [1] [cSt]	Kinematic viscosity at 40 C. [cSt], 6% oil [1] [cSt]	Kinematic viscosity at 40 C. [cSt], 8% oil [1] [cSt]	Cloudy at 1:20 dilution at 2%, 4%, and/or 6% [2]	Added at 2%: cloudy at 20:1 dilution [2]	Added at 4%: cloudy at 20:1 dilution [2]	Added at 6%: cloudy at 20:1 dilution [2]	Added at 8%: cloudy at 20:1 dilution [2]
CC1=CC=C(C(C)C)CC1 [alpha-Terpinene]	42	324.4	96.0	41.5	46.7	Yes	No	No	Yes	Yes
CCC(=O)OC1CC2CC1C1CC=CC21 (centres unmarked) [Cyclaprop]	404	404.2				No	No	No		
CCCCCC1(C)CCC(C)(C)C1=O (centres unmarked) [Veloutone]	47	260.2	129.1	56.3	47.3	Yes	No	No	Yes	Yes
CCCCCCCCCCCCCC(=O)OC(C)C [Iso Propyl Myristate]	30	234.2	53.7	30.4	45.0	Yes	No	No	Yes	Yes
